Measured values: patent US10030006B2, “Coumarin based Hsp90 inhibitors with urea and ether substituents” (University of Kansas, priority 2013, dated 2018)
Where two headings read alike, the source gives them in different places.

Assays:
Type in all cases: cell-based
[1] = test system: SKBr3 and MCF-7 cell lines; test: Anti-proliferative activity against both breast cancer cell lines (results in words); details: SKBr3 and MCF-7, Tables 1-5
Experimental: (§1) Cells were maintained in a 1:1 mixture of Advanced DMEM/F12 (Gibco) supplemented with non-essential amino acids, L-glutamine (2 mM), streptomycin (500 μg/mL), penicillin (100 units/mL), and 10% FBS. Cells were grown to confluence in a humidified atmosphere (37° C., 5% CO2), seeded (2000/well, 100 μL) in 96-well plates, and allowed to attach overnight. Compound at varying concentrations in DMSO (1% DMSO final concentration) was added, and cells were returned to the incubator for 72 h. At 72 h, the number of viable cells was determined using an MTS/PMS cell proliferation kit (Promega) per the manufacturer's instructions. Cells incubated in 1% DMSO were used at 100% proliferation, and values were adjusted accordingly. IC50 values were calculated from separate experiments performed in triplicate using GraphPad Prism.
The anti-proliferative activity of these compounds is evaluated against two breast cancer cell lines, SKBr3 (estrogen receptor negative, Her2 over-expressing breast cancer cells) and MCF-7 (estrogen receptor positive breast cancer cells).

[2] = test system: MCF-7 (estrogen receptor positive breast cancer cells); test: Anti-proliferation assay (MTS/PMS, 72 h), MCF-7; details: Table 6, substituted phenyl ureas, Breast Cancer, read-out: IC50 MCF-3
DRO81-1 = test: Anti-proliferation assay, DRO81-1; details: Table 6, substituted phenyl ureas; Thyroid
Experimental: as §1

MDAMB231 = test: Anti-proliferation assay, MDAMB231; details: Table 6, substituted phenyl ureas, Tri-Neg
Experimental: as §1

JMAR = test: Anti-proliferation assay, JMAR; details: Table 6, substituted phenyl ureas, HSNCC
Experimental: as §1

MRC5 = test: Anti-proliferation assay, MRC5 (normal)
Experimental: as §1

[3] = test system: SKBr3 (estrogen receptor negative, Her2 over-expressing breast cancer cells); test: Anti-proliferation assay (MTS/PMS, 72 h), SKBr3; details: Table 6, substituted phenyl ureas, Breast Cancer, read-out: IC50 SKBr3
MDA1986 = test: Anti-proliferation assay, MDA1986; details: Table 6, substituted phenyl ureas, HSNCC
Experimental: as §1

HCT-116 = test: Anti-proliferation assay, HCT-116; details: Table 6, substituted phenyl ureas
Experimental: as §1

HMLE = test: Anti-proliferation assay, HMLE (normal); details: Table 6, substituted phenyl ureas
Experimental: as §1

A-549 = test: Anti-proliferation assay, A-549; details: Table 6, substituted phenyl ureas
Experimental: as §1

PC-3 = test: Anti-proliferation assay, PC-3; details: Table 6, substituted phenyl ureas, Prostate Cancer
Experimental: as §1

[4] = Homo sapiens, MRC5, Table 6, substituted phenyl ureas

SMILES	IC50 ([2]; Homo sapiens, MCF7) [nM]	IC50 (DRO81-1) [nM]	IC50 (MDAMB231; Homo sapiens, MDA-MB-231) [nM]	IC50 (JMAR; JMAR) [nM]	IC50 (MRC5; [4]) [nM]	IC50 ([3]; Homo sapiens, SK-BR-3) [nM]	IC50 (MDA1986; MDA1986) [nM]	IC50 (HCT-116; Homo sapiens, HCT-116) [nM]	IC50 (HMLE; HMLE) [nM]	IC50 (A-549; Homo sapiens, A549) [nM]	IC50 (PC-3; Homo sapiens, PC-3) [nM]	further results
CC(C)=CCc1cc(C(=O)Nc2cc3ccc(OCCCN4CCN(C)CC4)c(C)c3oc2=O)ccc1O [Compound 62, 4-hydroxy-N-(8-methyl-7-(3-(4-methylpiperazin-1-yl)propoxy)-2-oxo-2H-chromen-3-yl)-3-(3-methylbut-2-en-1-yl)benzamide]	–	–	–	–	–	–	–	–	–	–	–	anti-proliferative activity (in words) [1]: maintain activity comparable to the N-methylpiperidine derivative
CC(C)=CCc1cc(C(=O)Nc2cc3ccc(OCCCN4CCOCC4)c(C)c3oc2=O)ccc1O [Compound 64, 4-hydroxy-N-(8-methyl-7-(3-morpholinopropoxy)-2-oxo-2H-chromen-3-yl)-3-(3-methylbut-2-en-1-yl)benzamide]	–	–	–	–	–	–	–	–	–	–	–	anti-proliferative activity (in words) [1]: inactive at the highest concentrations tested
CC(C)=CCc1cc(C(=O)Nc2cc3ccc(OCCCN4CCCCC4)c(C)c3oc2=O)ccc1O [Compound 65, 4-hydroxy-N-(8-methyl-2-oxo-7-(3-(piperidin-1-yl)propoxy)-2H-chromen-3-yl)-3-(3-methylbut-2-en-1-yl)benzamide]	–	–	–	–	–	–	–	–	–	–	–	anti-proliferative activity (in words) [1]: inactive at the highest concentrations tested
CC(C)=CCc1cc(C(=O)Nc2cc3ccc(OCCCN4CCCC4)c(C)c3oc2=O)ccc1O [Compound 66, 4-hydroxy-N-(8-methyl-2-oxo-7-(3-(pyrrolidin-1-yl)propoxy)-2H-chromen-3-yl)-3-(3-methylbut-2-en-1-yl)benzamide]	–	–	–	–	–	–	–	–	–	–	–	anti-proliferative activity (in words) [1]: restores activity
Cc1c(OC2CCN(C)CC2)ccc2cc(NC(=O)Nc3ccc(Br)cc3)c(=O)oc12 [p-Br, 1-(4-bromophenyl)-3-(8-methyl-7-((1-methylpiperidin-4-yl)oxy)-2-oxo-2H-chromen-3-yl)urea]	1040	3500	2600	3600	5500	650	3500	240	6000	110	180	–
Cc1c(OC2CCN(C)CC2)ccc2cc(NC(=O)Nc3ccc(C(C)(C)C)cc3)c(=O)oc12 [p-C(CH3)3, 1-(4-(tert-butyl)phenyl)-3-(8-methyl-7-((1-methylpiperidin-4-yl)oxy)-2-oxo-2H-chromen-3-yl)urea]	960	710	500	490	1800	930	570	210	14500	92	140	–
Cc1c(OC2CCN(C)CC2)ccc2cc(NC(=O)Nc3ccc(C(F)(F)F)cc3)c(=O)oc12 [p-CF3, 1-(8-methyl-7-((1-methylpiperidin-4-yl)oxy)-2-oxo-2H-chromen-3-yl)-3-(4-(trifluoromethyl)phenyl)urea]	470	640	430	3600	3100	350	900	800	15500	130	60	–
Cc1ccc(NC(=O)Nc2cc3ccc(OC4CCN(C)CC4)c(C)c3oc2=O)cc1 [p-CH3, 1-(8-methyl-7-((1-methylpiperidin-4-yl)oxy)-2-oxo-2H-chromen-3-yl)-3-(p-tolyl)urea]	290	16300	910	3500	6600	270	3200	59	3300	17	810	–
Cc1c(OC2CCN(C)CC2)ccc2cc(NC(=O)Nc3ccc(C(C)C)cc3)c(=O)oc12 [p-CH(CH3)2, 1-(4-isopropylphenyl)-3-(8-methyl-7-((1-methylpiperidin-4-yl)oxy)-2-oxo-2H-chromen-3-yl)urea]	820	300	610	880	1900	670	1110	1060	6400	160	130	–
Cc1c(OC2CCN(C)CC2)ccc2cc(NC(=O)Nc3ccc(C#N)cc3)c(=O)oc12 [p-CN, 1-(4-cyanophenyl)-3-(8-methyl-7-((1-methylpiperidin-4-yl)oxy)-2-oxo-2H-chromen-3-yl)urea]	430	280	440	3700	5700	370	1620	570	4000	43	48	–
CC(=O)c1ccc(NC(=O)Nc2cc3ccc(OC4CCN(C)CC4)c(C)c3oc2=O)cc1 [p-COCH3]	–	13300	–	–	–	–	–	–	–	–	–	IC50 [2]: 1720 nM; IC50 (MDAMB231): 750 nM; IC50 (JMAR): 11900 nM; IC50 (MRC5; Table 6, substituted phenyl ureas): 7700 nM; IC50 [3]: 1520 nM; IC50 (MDA1986): 3400 nM; IC50 (HCT-116): 250 nM; IC50 (HMLE): 8000 nM; IC50 (A-549): 240 nM; IC50 (PC-3): 2750 nM
Cc1c(OC2CCN(C)CC2)ccc2cc(NC(=O)Nc3ccc(Cl)cc3)c(=O)oc12 [p-Cl, 1-(4-chlorophenyl)-3-(8-methyl-7-((1-methylpiperidin-4-yl)oxy)-2-oxo-2H-chromen-3-yl)urea]	360	15800	> 25000	6100	> 25000	170	> 25000	420	> 25000	160	2300	–
Cc1c(OC2CCN(C)CC2)ccc2cc(NC(=O)Nc3ccc(F)cc3)c(=O)oc12 [p-F, 1-(4-fluorophenyl)-3-(8-methyl-7-((1-methylpiperidin-4-yl)oxy)-2-oxo-2H-chromen-3-yl)urea]	960	19900	50	8600	> 25000	480	10	61	> 25000	1060	3320	–
Cc1c(OC2CCN(C)CC2)ccc2cc(NC(=O)Nc3ccc([N+](=O)[O-])cc3)c(=O)oc12 [p-NO2, 1-(8-methyl-7-((1-methylpiperidin-4-yl)oxy)-2-oxo-2H-chromen-3-yl)-3-(4-nitrophenyl)urea]	4240	11500	2100	7300	> 25000	580	6600	2830	> 25000	950	1060	–
COc1ccc(NC(=O)Nc2cc3ccc(OC4CCN(C)CC4)c(C)c3oc2=O)cc1 [p-OCH3, 1-(4-methoxyphenyl)-3-(8-methyl-7-((1-methylpiperidin-4-yl)oxy)-2-oxo-2H-chromen-3-yl)urea]	960	29000	2400	8400	2700	860	2600	250	740	1090	520	–
Cc1c(OC2CCN(C)CC2)ccc2cc(NC(=O)Nc3ccc(Oc4ccccc4)cc3)c(=O)oc12 [p-phenoxyl, 1-(8-methyl-7-((1-methylpiperidin-4-yl)oxy)-2-oxo-2H-chromen-3-yl)-3-(4-phenoxyphenyl)urea]	700	1800	2200	5300	11300	400	6000	240	> 25000	180	150	–
Cc1c(OC2CCN(C)CC2)ccc2cc(NC(=O)Nc3ccc(-c4ccccc4)cc3)c(=O)oc12 [p-phenyl, 1-([1,1′-biphenyl]-4-yl)-3-(8-methyl-7-((1-methylpiperidin-4-yl)oxy)-2-oxo-2H-chromen-3-yl)urea]	700	270	370	930	2000	360	850	150	3600	66	52	–
